According to ChEMBL document CHEMBL5046301, “pH-Responsive Antimicrobial Peptide with Selective Killing Activity for Bacterial Abscess Therapy” (J Med Chem, 2022):

Legend:
[1] = Hemolytic activity against human RBC assessed as hemoglobin release at pH 6.5 incubated for 1 hrs; format: toxicity, cell-based; conditions: erythrocyte, pH 6.5, 1 h
Pseudomonas aeruginosa [2] = assay: Antibacterial activity against Pseudomonas aeruginosa ATCC 27853 assessed as inhibition of bacterial growth at pH 6.5 incubated for 24 hrs by NCCLS protocol based method; format: functional
Staphylococcus aureus [3] = assay: Antibacterial activity against Staphylococcus aureus ATCC 25923 assessed as inhibition of bacterial growth at pH 6.5 incubated for 24 hrs by NCCLS protocol based method; format: functional
Pseudomonas aeruginosa [4] = assay: Antibacterial activity against Pseudomonas aeruginosa ATCC 27853 assessed as inhibition of bacterial growth at pH 7.4 incubated for 24 hrs by NCCLS protocol based method; format: functional
[5] = Hemolytic activity in human RBC assessed as hemoglobin release at pH 7.4 incubated for 1 hr; format: toxicity, cell-based; conditions: erythrocyte, pH 7.4, 1 h
Staphylococcus aureus [6] = assay: Antibacterial activity against methicillin-resistant Staphylococcus aureus ATCC 43300 assessed as inhibition of bacterial growth at pH 6.5 incubated for 24 hrs by NCCLS protocol based method; format: functional
Salmonella typhimurium [7] = assay: Antibacterial activity against Salmonella enterica subsp. enterica serovar Typhimurium C77-31 assessed as inhibition of bacterial growth at pH 7.4 incubated for 24 hrs by NCCLS protocol based method; format: functional
[8] = Ratio of MHC for hemolytic activity against human RBC assessed as hemoglobin release at pH 6.5 to MHC for hemolytic activity against human RBC assessed as hemoglobin release at pH 7.4; format: toxicity, cell-based, Erythrocyte; conditions: human red blood cells (RBC)
Salmonella typhimurium [9] = assay: Antibacterial activity against Salmonella typhimurium ATCC 14028 assessed as inhibition of bacterial growth at pH 6.5 incubated for 24 hrs by NCCLS protocol based method; format: functional, Salmonella enterica subsp. enterica serovar Typhimurium; conditions: Salmonella enterica
[10] = tested on: Staphylococcus epidermidis; assay: Antibacterial activity against Staphylococcus epidermidis ATCC 12228 assessed as inhibition of bacterial growth at pH 6.5 incubated for 24 hrs by NCCLS protocol based method; format: functional
Escherichia coli [11] = assay: Antibacterial activity against Escherichia coli ATCC 25922 assessed as inhibition of bacterial growth at pH 7.4 incubated for 24 hrs by NCCLS protocol based method; format: functional
Staphylococcus aureus [12] = assay: Antibacterial activity against methicillin-resistant Staphylococcus aureus ATCC 43300 assessed as inhibition of bacterial growth at pH 7.4 incubated for 24 hrs by NCCLS protocol based method; format: functional
Escherichia coli [13] = assay: Antibacterial activity against Escherichia coli ATCC 25922 assessed as inhibition of bacterial growth at pH 6.5 incubated for 24 hrs by NCCLS protocol based method; format: functional
Staphylococcus aureus [14] = assay: Antibacterial activity against Staphylococcus aureus ATCC 25923 assessed as inhibition of bacterial growth at pH 7.4 incubated for 24 hrs by NCCLS protocol based method; format: functional
[15] = Cytotoxicity against mouse RAW264.7 cells assessed as inhibition of cell growth at pH 7.4 measured after 24 hrs by MTT assay; format: toxicity, cell-based
[16] = tested on: Staphylococcus epidermidis; assay: Antibacterial activity against Staphylococcus epidermidis ATCC 12228 assessed as inhibition of bacterial growth at pH 7.4 incubated for 24 hrs by NCCLS protocol based method; format: functional
Salmonella typhimurium [17] = assay: Antibacterial activity against Salmonella typhimurium ATCC 14028 assessed as inhibition of bacterial growth at pH 7.4 incubated for 24 hrs by NCCLS protocol based method; format: functional, Salmonella enterica subsp. enterica serovar Typhimurium; conditions: Salmonella enterica
Staphylococcus aureus [18] = assay: Antibacterial activity against Staphylococcus aureus ATCC 29213 assessed as inhibition of bacterial growth at pH 6.5 incubated for 24 hrs by NCCLS protocol based method; format: functional
Salmonella typhimurium [19] = assay: Antibacterial activity against Salmonella enterica subsp. enterica serovar Typhimurium C77-31 assessed as inhibition of bacterial growth at pH 6.5 incubated for 24 hrs by NCCLS protocol based method; format: functional
[20] = Cytotoxicity against mouse RAW264.7 cells assessed as inhibition of cell growth at pH 6.5 measured after 24 hrs by MTT assay; format: toxicity, cell-based
Staphylococcus aureus [21] = assay: Antibacterial activity against Staphylococcus aureus ATCC 29213 assessed as inhibition of bacterial growth at pH 7.4 incubated for 24 hrs by NCCLS protocol based method; format: functional

Substance	MHC10 [1] [µM]	MIC (Pseudomonas aeruginosa [2]) [µM]	MIC (Staphylococcus aureus [3]) [µM]	MIC (Pseudomonas aeruginosa [4]) [µM]	MHC10 [5] [µM]	MIC (Staphylococcus aureus [6]) [µM]	MIC (Salmonella typhimurium [7]) [µM]	MIC (Salmonella typhimurium [9]) [µM]	MIC [10] [µM]	MIC (Escherichia coli [11]) [µM]	MIC (Staphylococcus aureus [12]) [µM]	MIC (Escherichia coli [13]) [µM]	MIC (Staphylococcus aureus [14]) [µM]	IC50 at 24 h [15] [µM]	MIC [16] [µM]	MIC (Salmonella typhimurium [17]) [µM]	MIC (Staphylococcus aureus [18]) [µM]	MIC (Salmonella typhimurium [19]) [µM]	IC50 at 24 h [20] [µM]	MIC (Staphylococcus aureus [21]) [µM]	also measured
H-FLFHLIPHVIHGLVKAIRK-NH2	4	1	1	4	16	1	4	4	1	2	2	1	2	4.41	1	8	1	2	3.15	2	selectivity ratio [8]: 0.25
H-FLFKLIPKVIKGLVHAIHH-NH2	32	4	2	8	64	2	8	4	2	4	2	4	2	4.37	2	8	2	4	2.96	2	selectivity ratio [8]: 0.5
H-FLHHLIPHVIHGLVHAIHH-NH2	64	2	8	> 64	64	8	16	4	8	8	4	2	4	70.1	4	16	16	2	16.1	> 64	selectivity ratio [8]: 1
H-HLDHLIPHVIHGLVHAIHH-NH2	> 128	32	> 64	> 64	> 128	> 64	> 64	64	> 64	> 64	> 64	8	> 64	> 128	> 64	> 64	> 64	64	> 128	> 64	
H-HLEHLIPHVIHGLVHAIHH-NH2	> 128	32	> 64	> 64	> 128	> 64	> 64	64	> 64	> 64	> 64	4	> 64	> 128	> 64	> 64	> 64	> 64	> 128	> 64	
H-HLHHLIPHVIHGLVHAIHH-NH2	> 128	8	> 64	> 64	> 128	> 64	64	8	> 64	16	16	2	32	66	32	64	> 64	2	58.3	> 64	
